Results taken from US12128132B2, “Drug delivery formulations” (MedinCell S.A., priority 2019, dated 2024).

Experiment: Stability of risperidone stock solution
Format: physicochemical
Settings: 200 μg/mL in acetonitrile/H2O (50/50 v/v), stored at +2-8° C.
Description: Starting from this mother solution, calibration standards were prepared by dilution in the same sample solvent mixture as above. Six dilutions were performed to obtain calibration standards of 1, 5, 10, 25, 50, 100 and 200 μg/mL.

For `Cc1nc2n(c(=O)c1CCN1CCC(c3noc4cc(F)ccc34)CC1)CCCC2` [risperidone], the “stability of stock solution” value was at least 5 months.
